Results on 14 compounds are retold here after ChEMBL document CHEMBL1287761, “The novel benzopyran class of selective cyclooxygenase-2 inhibitors-part I: the first clinical candidate” (Bioorg Med Chem Lett, 2010).

In data set [1] the test system is Rattus norvegicus. Briefly: Antiinflammatory activity against carrageenan-induced inflammation in Sprague-Dawley rat air pouch model assessed as reduction in PGE2 level administered 3 hrs after carrageenan challenge. Type of data set: functional.
In data set [2] the test system is Rattus norvegicus. Briefly: Analgesic activity against carrageenan-induced thermal hyperalgesia in Sprague-Dawley rat assessed as paw withdrawal latency administered 1 to 3 hrs after carrageenan challenge. In kind it is functional.
The species named for data set [3] is Rattus norvegicus. Briefly: Antiinflammatory effect in complete Freund's adjuvant-induced Lewis rat arthritis model assessed as reduction in paw swelling by volume displacement plethysmometry. Type of data set: functional.
Data set [4] has as its target Prostaglandin G/H synthase 1 (Homo sapiens, UniProt P23219). The data set is described as follows: Inhibition of human COX-1.
Data set [5] addresses T1, Prostaglandin G/H synthase 2 (Homo sapiens, UniProt P35354).
T1 sequence (P35354 whole entry): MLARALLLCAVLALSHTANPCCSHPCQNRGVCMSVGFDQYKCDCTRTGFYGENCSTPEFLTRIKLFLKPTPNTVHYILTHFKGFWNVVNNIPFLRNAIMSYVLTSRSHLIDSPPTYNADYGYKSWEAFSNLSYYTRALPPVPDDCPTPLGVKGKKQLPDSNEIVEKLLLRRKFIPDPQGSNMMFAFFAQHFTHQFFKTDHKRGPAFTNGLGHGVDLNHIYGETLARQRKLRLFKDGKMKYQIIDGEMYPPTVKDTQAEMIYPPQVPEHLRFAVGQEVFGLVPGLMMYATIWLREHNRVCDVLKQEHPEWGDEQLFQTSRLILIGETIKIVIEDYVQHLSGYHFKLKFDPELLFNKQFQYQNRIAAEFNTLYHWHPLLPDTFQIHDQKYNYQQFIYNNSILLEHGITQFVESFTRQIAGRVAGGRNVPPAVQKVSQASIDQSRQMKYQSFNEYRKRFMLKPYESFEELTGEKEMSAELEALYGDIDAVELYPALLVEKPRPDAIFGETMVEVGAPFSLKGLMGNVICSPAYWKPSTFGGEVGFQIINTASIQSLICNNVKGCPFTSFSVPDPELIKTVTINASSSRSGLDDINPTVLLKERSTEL
Briefly: Inhibition of human COX-2.

For data set [6], the target named is COX-1/COX-2 (Homo sapiens) (UniProt P35354+P23219). The data set is described as follows: Selectivity ratio of IC50 for human COX-1 to IC50 for human COX-2.
COX-1/COX-2 (Homo sapiens), sequence (P23219 whole entry, looked up, one chain of several): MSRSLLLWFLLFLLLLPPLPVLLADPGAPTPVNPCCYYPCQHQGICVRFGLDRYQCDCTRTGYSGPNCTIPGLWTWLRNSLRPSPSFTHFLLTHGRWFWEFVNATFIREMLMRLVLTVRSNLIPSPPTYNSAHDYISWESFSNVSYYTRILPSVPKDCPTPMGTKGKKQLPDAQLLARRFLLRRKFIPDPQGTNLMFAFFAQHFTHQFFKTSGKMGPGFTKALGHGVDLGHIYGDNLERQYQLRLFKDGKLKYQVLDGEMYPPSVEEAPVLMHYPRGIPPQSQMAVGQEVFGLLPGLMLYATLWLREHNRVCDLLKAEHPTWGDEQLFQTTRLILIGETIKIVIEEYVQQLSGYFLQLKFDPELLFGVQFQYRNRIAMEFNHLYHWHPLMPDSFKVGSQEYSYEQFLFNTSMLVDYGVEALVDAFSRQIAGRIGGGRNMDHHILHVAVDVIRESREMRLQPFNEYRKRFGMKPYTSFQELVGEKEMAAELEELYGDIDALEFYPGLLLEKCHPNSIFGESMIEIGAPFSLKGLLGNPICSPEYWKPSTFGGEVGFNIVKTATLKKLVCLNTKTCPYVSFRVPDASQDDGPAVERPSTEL
Data set [7] in a line: Half life in rat. Type of data set: ADME, organism-based. Conditions: in vivo.
Data set [8] in a line: Half life in dog. In kind it is ADME, organism-based, Canis lupus familiaris. Conditions: in vivo.
In data set [9] the test system is Rattus norvegicus. Briefly: Antiinflammatory activity against carrageenan-induced paw edema in Sprague-Dawley rat administered 1 to 3 hrs after carrageenan challenge. Type of data set: functional. (In general: In the carrageenan paw model, swelling and tenderness develop within hours.)

The structures appear in SMILES notation.

Prostaglandin G/H synthase 1, sequence (P23219 whole entry): as the sequence (P23219 whole entry, looked up, one chain of several) above

Regarding `Cc1ccc(-c2cc(C(F)(F)F)nn2-c2ccc(S(N)(=O)=O)cc2)cc1` [CELECOXIB], the “inhibition (INH)” value in the data set on Rattus norvegicus [1] is reported as 94%. The 50% effective dose (ED50) turned out to be 35 mg/kg in the data set on Rattus norvegicus [2] and 0.3 mg/kg in the data set filed under Rattus norvegicus [3].

With `NS(=O)(=O)c1ccc(-c2cc(Cl)cc3c2OC(C(F)(F)F)C(C(=O)O)=C3)cc1` (stereo not drawn), the IC50 in data set [4] was 1.74 µM; in [5] it was 0.76 µM.

In the case of `O=C(O)C1=Cc2cc(Cl)c(Cl)c(Cl)c2OC1C(F)(F)F` (stereo not drawn), the figures for the IC50 in data set [4] and in data set [5] were 2.7 µM and 0.043 µM, respectively. In addition, the Ratio IC50 in data set [6] was 63.

Consider `O=C(O)C1=Cc2cc(Cl)cc(Cl)c2O[C@@H]1C(F)(F)F`, for which the half-life in data set [7] was 10.1 h; in [8], 20.4 h. Besides, the median effective dose (ED50) in the data set with Rattus norvegicus [1] (Rattus norvegicus, Sprague-Dawley, 3 h) was 0.54 mg/kg; with Rattus norvegicus [9], 7.1 mg/kg; in the data set on Rattus norvegicus [2], 2.6 mg/kg; in the data set filed under Rattus norvegicus [3] it was 0.03 mg/kg.

Regarding `O=C(O)C1=Cc2cc(Cl)cc(C#Cc3ccccc3)c2OC1C(F)(F)F` (stereo not drawn), the IC50 in data set [4] was determined as 33 µM; in [5], 0.14 µM.

In the case of `O=C(O)C1=Cc2c(cc(Cl)c(Cl)c2Cl)OC1C(F)(F)F` (stereo not drawn), the IC50 in [4] stood at 0.88 µM; in data set [5] it was 0.006 µM. Moreover, the Ratio IC50 in [6] came out at 136.

`O=C(O)C1=Cc2cc(Cl)c(Cl)cc2OC1C(F)(F)F` (stereo not drawn): the IC50 in [4] is 94.5 µM; in [5], 0.062 µM. Besides, the Ratio IC50 in [6] is 1520.

In the case of `O=C(O)C1=Cc2ccc(Cl)c(Cl)c2OC1C(F)(F)F` (stereo not drawn), the IC50 in [4] and in data set [5] was 300 µM each time. Besides, the Ratio IC50 in [6] was found to be 1.

In the case of `O=C(O)C1=Cc2cc(Cl)cc(-c3ccccc3)c2OC1C(F)(F)F` (stereo not drawn), the IC50 in data set [4] was 3.11 µM; in data set [5] it was 0.11 µM.

For `O=C(O)C1=Cc2c(Cl)ccc(Cl)c2OC1C(F)(F)F` (stereo not drawn), the results for the IC50 in data set [4] and in [5] were 11 µM and 0.1 µM, respectively. Further, the Ratio IC50 in data set [6] turned out to be 110.

In the case of `C#Cc1cc(Cl)cc2c1OC(C(F)(F)F)C(C(=O)O)=C2` (stereo not drawn), the IC50 was less than 0.35 µM in data set [4] and 0.043 µM in data set [5].

Regarding `O=C(O)C1=Cc2cc(Cl)ccc2OC1C(F)(F)F` (stereo not drawn), the IC50 amounted to 29.2 µM in data set [4] and 0.32 µM in data set [5]. Moreover, in data set [6], the Ratio IC50 was 90. Also, the “inhibition (INH)” value with Rattus norvegicus [1] is recorded as 98%. Further, the 50% effective dose (ED50) worked out at 6 mg/kg with Rattus norvegicus [2] and 0.4 mg/kg in the data set listed under Rattus norvegicus [3].

Take `O=C(O)C1=Cc2c(Cl)cc(Cl)cc2OC1C(F)(F)F` (stereo not drawn): the results for the IC50 in [4] and in data set [5] were 145 µM and 12 µM, respectively. In addition, in data set [6], the Ratio IC50 was 12.

As to `C=Cc1cc(Cl)cc2c1OC(C(F)(F)F)C(C(=O)O)=C2` (stereo not drawn), the IC50 in [4] amounted to 0.14 µM; in [5] it was 0.018 µM.

The term ED50 denotes the midpoint of the dose-response relation. The IC50 is the concentration that inhibits the measured activity by half. The low end stands for higher potency, the high end for lower potency. The term half-life denotes the time needed for the level to fall by half in the phase considered. Low values mean fast loss, high ones slow loss.
